The target in assay [1] is Cyclin-dependent kinase 4/cyclin D1 (Homo sapiens) (UniProt P11802+P24385). Put plainly: Binding affinity to wild-type human full length CDK4/cyclinD1 (M1 to E303 residues) expressed in mammalian expression system assessed as residual binding level at 1 uM by Kinomescan method relative to control.
The target of assay [2] is Epidermal growth factor receptor (Homo sapiens) (UniProt P00533). Put plainly: Binding affinity to wild-type human partial length EGFR (R669 to V1011 residues) expressed in bacterial expression system assessed as residual binding level at 1 uM by Kinomescan method relative to control.
The target of assay [3] is Serine/threonine-protein kinase 24 (Homo sapiens) (UniProt Q9Y6E0). Put plainly: Binding affinity to wild-type human partial length MST3 (A30 to S311 residues) expressed in bacterial expression system assessed as residual binding level at 1 uM by Kinomescan method relative to control.
Assay [4] concerns the target Casein kinase I isoform gamma-2 (Homo sapiens) (UniProt P78368). Put plainly: Binding affinity to wild-type human full length CSNK1G2 (M1 to K415 residues) expressed in bacterial expression system assessed as residual binding level at 1 uM by Kinomescan method relative to control.
Assay [5] deals with Serine/threonine-protein kinase D1 (Homo sapiens) (UniProt Q15139). Put plainly: Binding affinity to wild-type human partial length PRKD1 (G551 to E870 residues) expressed in bacterial expression system assessed as residual binding level at 1 uM by Kinomescan method relative to control.
For assay [6], the target named is Mitogen-activated protein kinase 15 (Homo sapiens) (UniProt Q8TD08). Put plainly: Binding affinity to wild-type human partial length ERK8 (M1 to P437 residues) expressed in bacterial expression system assessed as residual binding level at 1 uM by Kinomescan method relative to control.
For assay [7], the target named is Muscle, skeletal receptor tyrosine-protein kinase (Homo sapiens) (UniProt O15146). Put plainly: Binding affinity to wild-type human partial length MUSK (M553 to V869 residues) expressed in bacterial expression system assessed as residual binding level at 1 uM by Kinomescan method relative to control.
For assay [8], the target named is Cyclin-dependent kinase-like 3 (Homo sapiens) (UniProt Q8IVW4). Put plainly: Binding affinity to wild-type human partial length CDKL3 (M1 to D327 residues) expressed in bacterial expression system assessed as residual binding level at 1 uM by Kinomescan method relative to control.
Assay [9] has as its target Calcium/calmodulin-dependent protein kinase type II subunit beta (Homo sapiens) (UniProt Q13554). Put plainly: Binding affinity to wild-type human partial length CAMK2B (M1 to Q380 residues) expressed in bacterial expression system assessed as residual binding level at 1 uM by Kinomescan method relative to control.
Assay [10] has as its target Activin receptor type-1B (Homo sapiens) (UniProt P36896). Put plainly: Binding affinity to wild-type human ACVR1B (S187 to I505 residues) expressed in bacterial expression system assessed as residual binding level at 1 uM by Kinomescan method relative to control.
The target in assay [11] is Mitogen-activated protein kinase kinase kinase 1 (Homo sapiens) (UniProt Q13233). Put plainly: Binding affinity to wild-type human partial length MAP3K1 (L1202 to W1512 residues) expressed in mammalian expression system assessed as residual binding level at 1 uM by Kinomescan method relative to control.
Assay [12] has as its target Mitogen-activated protein kinase 1 (Homo sapiens) (UniProt P28482). Put plainly: Binding affinity to wild-type human full length ERK2 (M1 to S360 residues) expressed in bacterial expression system assessed as residual binding level at 1 uM by Kinomescan method relative to control.
Assay [13] addresses Serine/threonine-protein kinase 4 (Homo sapiens) (UniProt Q13043). Put plainly: Binding affinity to wild-type human full length MST1 (M1 to F487 residues) expressed in bacterial expression system assessed as residual binding level at 1 uM by Kinomescan method relative to control.
For assay [14], the target named is Tyrosine-protein kinase Fyn (Homo sapiens) (UniProt P06241). Put plainly: Binding affinity to wild-type human partial length FYN (T243 to L534 residues) expressed in bacterial expression system assessed as residual binding level at 1 uM by Kinomescan method relative to control.
For assay [15], the target named is Serine/threonine-protein kinase PLK4 (Homo sapiens) (UniProt O00444). Put plainly: Binding affinity to wild-type human partial length PLK4 (M1 to S273 residues) expressed in mammalian expression system assessed as residual binding level at 1 uM by Kinomescan method relative to control.
The test system of assay [16] is Fibroblast growth factor receptor 3 (Homo sapiens), P22607 [G697C]. Put plainly: Binding affinity to human partial length FGFR3 G697C mutant (R442 to S771 residues) expressed in bacterial expression system assessed as residual binding level at 1 uM by Kinomescan method relative to control.
The target in assay [17] is Ephrin type-A receptor 2 (Homo sapiens) (UniProt P29317). Put plainly: Binding affinity to wild-type human partial length EPHA2 (T593 to V891 residues) expressed in bacterial expression system assessed as residual binding level at 1 uM by Kinomescan method relative to control.
The target in assay [18] is Dual specificity mitogen-activated protein kinase kinase 3 (Homo sapiens) (UniProt P46734). Put plainly: Binding affinity to wild-type human full length MEK3 (M1 to S318 residues) expressed in mammalian expression system assessed as residual binding level at 1 uM by Kinomescan method relative to control.
For assay [19], the target named is Serine/threonine-protein kinase 3 (Homo sapiens) (UniProt Q13188). Put plainly: Binding affinity to wild-type human partial length MST2 (D17 to E318 residues) expressed in bacterial expression system assessed as residual binding level at 1 uM by Kinomescan method relative to control.
Assay [20] deals with NUAK family SNF1-like kinase 1 (Homo sapiens) (UniProt O60285). Put plainly: Binding affinity to wild-type human partial length ARK5 (E25 to I332 residues) expressed in bacterial expression system assessed as residual binding level at 1 uM by Kinomescan method relative to control.
Assay [21] concerns the target Receptor-interacting serine/threonine-protein kinase 2 (Homo sapiens) (UniProt O43353). Put plainly: Binding affinity to wild-type human partial length RIPK2 (M1 to K310 residues) expressed in bacterial expression system assessed as residual binding level at 1 uM by Kinomescan method relative to control.
Assay [22] has as its target Calcium/calmodulin-dependent protein kinase type II subunit delta (Homo sapiens) (UniProt Q13557). Put plainly: Binding affinity to wild-type human partial length CAMK2D (M1 to E329 residues) expressed in bacterial expression system assessed as residual binding level at 1 uM by Kinomescan method relative to control.
The target in assay [23] is Mitogen-activated protein kinase kinase kinase 13 (Homo sapiens) (UniProt O43283). Put plainly: Binding affinity to wild-type human full length LZK (M1 to W966 residues) expressed in mammalian expression system assessed as residual binding level at 1 uM by Kinomescan method relative to control.
Assay [24] concerns the target Phosphatidylinositol 4,5-bisphosphate 3-kinase catalytic subunit alpha isoform (Homo sapiens) (UniProt P42336). Put plainly: Binding affinity to wild-type human partial length PIK3CA (R108 to N1068 residues) expressed in mammalian expression system assessed as residual binding level at 1 uM by Kinomescan method relative to control.

Chain of Cyclin-dependent kinase-like 3 (Homo sapiens) (Q8IVW4 whole entry, looked up, the tested form may be a part): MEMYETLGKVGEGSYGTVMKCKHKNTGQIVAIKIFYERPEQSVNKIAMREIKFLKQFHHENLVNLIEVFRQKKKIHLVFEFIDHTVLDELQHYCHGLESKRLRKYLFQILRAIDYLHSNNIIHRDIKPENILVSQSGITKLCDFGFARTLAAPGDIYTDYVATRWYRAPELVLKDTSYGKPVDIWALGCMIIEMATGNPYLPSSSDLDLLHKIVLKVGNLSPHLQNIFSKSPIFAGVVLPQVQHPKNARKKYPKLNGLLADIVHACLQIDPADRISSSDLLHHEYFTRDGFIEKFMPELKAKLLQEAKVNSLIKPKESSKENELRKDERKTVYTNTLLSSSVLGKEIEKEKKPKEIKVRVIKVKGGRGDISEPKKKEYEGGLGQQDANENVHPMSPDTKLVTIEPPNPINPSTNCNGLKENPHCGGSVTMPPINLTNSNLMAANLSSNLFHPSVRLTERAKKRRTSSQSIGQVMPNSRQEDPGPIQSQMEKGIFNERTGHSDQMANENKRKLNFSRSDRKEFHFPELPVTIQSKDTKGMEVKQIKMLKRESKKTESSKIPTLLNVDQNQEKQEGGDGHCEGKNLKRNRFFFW
Chain of Dual specificity mitogen-activated protein kinase kinase 3 (Homo sapiens) (P46734 whole entry, the tested form may be a part): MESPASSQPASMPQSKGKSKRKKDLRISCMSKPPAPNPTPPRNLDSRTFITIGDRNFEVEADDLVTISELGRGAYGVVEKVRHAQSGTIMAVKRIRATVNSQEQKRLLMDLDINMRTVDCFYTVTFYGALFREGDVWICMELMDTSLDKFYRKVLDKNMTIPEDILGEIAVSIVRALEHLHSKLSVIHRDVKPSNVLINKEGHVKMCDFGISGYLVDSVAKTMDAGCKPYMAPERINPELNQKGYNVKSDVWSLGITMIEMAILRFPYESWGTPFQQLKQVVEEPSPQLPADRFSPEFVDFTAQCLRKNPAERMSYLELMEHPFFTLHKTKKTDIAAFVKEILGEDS
Chain of NUAK family SNF1-like kinase 1 (Homo sapiens) (O60285 whole entry, the tested form may be a part): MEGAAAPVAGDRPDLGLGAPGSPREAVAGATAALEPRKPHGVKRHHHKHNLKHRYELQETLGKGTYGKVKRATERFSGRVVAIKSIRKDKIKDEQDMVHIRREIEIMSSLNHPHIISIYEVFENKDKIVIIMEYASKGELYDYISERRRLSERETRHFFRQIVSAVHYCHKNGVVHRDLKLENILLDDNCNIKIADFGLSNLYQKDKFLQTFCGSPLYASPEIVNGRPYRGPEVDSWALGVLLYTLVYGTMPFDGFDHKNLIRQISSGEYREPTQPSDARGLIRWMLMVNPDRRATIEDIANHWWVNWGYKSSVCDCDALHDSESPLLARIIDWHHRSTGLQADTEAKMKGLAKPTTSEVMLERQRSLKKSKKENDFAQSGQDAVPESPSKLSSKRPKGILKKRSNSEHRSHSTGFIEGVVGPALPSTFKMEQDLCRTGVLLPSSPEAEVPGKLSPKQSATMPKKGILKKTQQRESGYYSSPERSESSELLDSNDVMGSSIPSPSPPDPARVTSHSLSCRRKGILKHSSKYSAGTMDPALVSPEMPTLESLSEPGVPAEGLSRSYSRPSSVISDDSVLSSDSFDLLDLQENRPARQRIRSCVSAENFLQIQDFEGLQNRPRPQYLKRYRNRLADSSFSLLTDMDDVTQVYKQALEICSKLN
Chain of Casein kinase I isoform gamma-2 (Homo sapiens) (P78368 whole entry, looked up, the tested form may be a part, canonical isoform): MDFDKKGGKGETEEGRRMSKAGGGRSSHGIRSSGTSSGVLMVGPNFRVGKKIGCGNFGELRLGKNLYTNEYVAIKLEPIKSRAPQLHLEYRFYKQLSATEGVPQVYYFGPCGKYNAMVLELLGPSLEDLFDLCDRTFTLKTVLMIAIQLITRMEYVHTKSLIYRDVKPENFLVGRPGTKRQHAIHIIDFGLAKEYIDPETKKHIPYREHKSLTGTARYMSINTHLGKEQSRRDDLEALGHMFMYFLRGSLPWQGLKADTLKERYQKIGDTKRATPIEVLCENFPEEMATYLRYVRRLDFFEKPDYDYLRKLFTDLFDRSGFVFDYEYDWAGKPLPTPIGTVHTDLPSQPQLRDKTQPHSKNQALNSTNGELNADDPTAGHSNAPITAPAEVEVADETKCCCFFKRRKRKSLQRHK
Chain of Activin receptor type-1B (Homo sapiens) (P36896 whole entry, the tested form may be a part): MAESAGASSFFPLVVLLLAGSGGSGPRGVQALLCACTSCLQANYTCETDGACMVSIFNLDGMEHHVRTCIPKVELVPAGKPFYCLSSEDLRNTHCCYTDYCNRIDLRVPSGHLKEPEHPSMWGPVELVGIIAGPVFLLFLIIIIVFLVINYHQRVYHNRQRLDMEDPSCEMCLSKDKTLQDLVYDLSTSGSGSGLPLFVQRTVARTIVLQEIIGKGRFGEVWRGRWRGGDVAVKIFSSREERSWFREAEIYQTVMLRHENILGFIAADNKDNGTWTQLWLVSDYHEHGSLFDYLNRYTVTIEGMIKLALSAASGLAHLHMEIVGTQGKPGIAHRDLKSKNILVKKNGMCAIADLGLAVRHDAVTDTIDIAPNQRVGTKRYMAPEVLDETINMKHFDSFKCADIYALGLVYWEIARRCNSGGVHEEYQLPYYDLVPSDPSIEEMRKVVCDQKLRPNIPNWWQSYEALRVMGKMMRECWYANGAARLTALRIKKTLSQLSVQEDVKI
Chain of Serine/threonine-protein kinase 4 (Homo sapiens) (Q13043 whole entry, the tested form may be a part): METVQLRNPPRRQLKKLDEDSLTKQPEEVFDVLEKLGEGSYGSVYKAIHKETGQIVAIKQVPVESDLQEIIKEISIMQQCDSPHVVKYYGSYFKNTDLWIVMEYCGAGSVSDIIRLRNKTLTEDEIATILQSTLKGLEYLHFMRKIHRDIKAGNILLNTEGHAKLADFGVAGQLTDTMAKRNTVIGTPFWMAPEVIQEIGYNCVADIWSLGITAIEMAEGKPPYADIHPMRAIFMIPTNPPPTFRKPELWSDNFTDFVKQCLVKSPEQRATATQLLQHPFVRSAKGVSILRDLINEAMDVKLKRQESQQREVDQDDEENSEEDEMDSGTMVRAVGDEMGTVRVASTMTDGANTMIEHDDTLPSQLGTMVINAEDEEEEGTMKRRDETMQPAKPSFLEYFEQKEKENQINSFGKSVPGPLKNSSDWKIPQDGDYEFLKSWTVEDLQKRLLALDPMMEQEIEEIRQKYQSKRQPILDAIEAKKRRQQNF
Chain of Serine/threonine-protein kinase D1 (Homo sapiens) (Q15139 whole entry, the tested form may be a part): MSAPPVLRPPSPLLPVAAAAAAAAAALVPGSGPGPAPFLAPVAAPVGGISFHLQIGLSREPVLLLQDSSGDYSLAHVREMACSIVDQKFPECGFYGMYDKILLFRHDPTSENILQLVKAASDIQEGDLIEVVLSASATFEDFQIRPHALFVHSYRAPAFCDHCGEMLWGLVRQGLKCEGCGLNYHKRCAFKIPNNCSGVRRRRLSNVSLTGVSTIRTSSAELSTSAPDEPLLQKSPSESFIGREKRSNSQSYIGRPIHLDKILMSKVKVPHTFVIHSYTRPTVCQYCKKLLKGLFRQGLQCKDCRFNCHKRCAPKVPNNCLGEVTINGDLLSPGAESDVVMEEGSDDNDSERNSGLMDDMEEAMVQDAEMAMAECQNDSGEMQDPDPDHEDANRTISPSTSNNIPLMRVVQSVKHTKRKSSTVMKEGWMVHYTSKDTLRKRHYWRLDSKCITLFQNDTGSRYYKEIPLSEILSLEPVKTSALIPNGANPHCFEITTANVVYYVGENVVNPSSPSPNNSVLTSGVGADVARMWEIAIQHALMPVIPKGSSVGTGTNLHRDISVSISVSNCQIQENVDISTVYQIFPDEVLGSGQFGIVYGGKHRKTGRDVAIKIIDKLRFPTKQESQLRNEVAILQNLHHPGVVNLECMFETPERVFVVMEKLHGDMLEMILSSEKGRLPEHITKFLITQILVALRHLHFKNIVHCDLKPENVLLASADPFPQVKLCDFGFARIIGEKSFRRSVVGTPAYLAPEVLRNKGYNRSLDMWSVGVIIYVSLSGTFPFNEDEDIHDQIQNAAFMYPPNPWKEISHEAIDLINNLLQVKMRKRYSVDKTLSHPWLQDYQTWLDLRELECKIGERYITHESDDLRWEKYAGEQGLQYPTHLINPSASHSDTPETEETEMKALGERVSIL
Chain of Serine/threonine-protein kinase 3 (Homo sapiens) (Q13188 whole entry, the tested form may be a part): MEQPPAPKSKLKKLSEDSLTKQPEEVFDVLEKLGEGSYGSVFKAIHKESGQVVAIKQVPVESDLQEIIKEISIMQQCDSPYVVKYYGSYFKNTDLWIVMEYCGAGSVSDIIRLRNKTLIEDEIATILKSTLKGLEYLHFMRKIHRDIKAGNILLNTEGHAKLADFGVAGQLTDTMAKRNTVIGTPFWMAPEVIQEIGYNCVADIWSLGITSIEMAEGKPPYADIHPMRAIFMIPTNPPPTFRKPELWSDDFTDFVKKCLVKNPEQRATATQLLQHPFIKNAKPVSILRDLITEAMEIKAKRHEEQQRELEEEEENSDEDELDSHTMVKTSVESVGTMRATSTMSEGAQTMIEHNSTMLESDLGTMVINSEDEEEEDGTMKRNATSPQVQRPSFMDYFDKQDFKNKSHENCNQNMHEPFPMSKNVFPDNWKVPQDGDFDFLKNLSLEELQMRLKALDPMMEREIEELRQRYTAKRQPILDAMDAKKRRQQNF
Chain of Calcium/calmodulin-dependent protein kinase type II subunit delta (Homo sapiens) (Q13557 whole entry, the tested form may be a part): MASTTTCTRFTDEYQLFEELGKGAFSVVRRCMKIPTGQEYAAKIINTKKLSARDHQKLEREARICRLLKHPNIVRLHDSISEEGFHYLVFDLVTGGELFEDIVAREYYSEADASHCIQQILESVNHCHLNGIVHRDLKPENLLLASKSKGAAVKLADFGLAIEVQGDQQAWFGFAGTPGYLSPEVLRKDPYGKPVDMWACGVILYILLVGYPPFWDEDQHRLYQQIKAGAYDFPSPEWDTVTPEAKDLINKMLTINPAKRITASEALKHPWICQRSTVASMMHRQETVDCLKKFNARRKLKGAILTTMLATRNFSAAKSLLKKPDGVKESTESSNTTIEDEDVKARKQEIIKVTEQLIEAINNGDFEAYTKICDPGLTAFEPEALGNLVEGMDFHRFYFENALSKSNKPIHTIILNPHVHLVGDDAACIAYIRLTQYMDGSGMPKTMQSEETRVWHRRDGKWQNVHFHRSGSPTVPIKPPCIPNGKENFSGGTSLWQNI

As for `CC(C)Nc1sc(C(=O)c2ccc(Cl)s2)c(N)c1C#N`, the Activity was found to be 100% in assay [1]; 89% in assay [2]; 99% in assay [3]; 74% in assay [4]; 97% in [5]; 82% in assay [6]. In addition, the Activity was 76% in assay [7]; 47% in assay [8]; 60% in assay [9]; 82% in assay [10]; 100% in assay [11]; 100% in [12]. In addition, the Activity in assay [13] was determined as 100%; in assay [14] it was 91%; in assay [15], 100%; in [16] it was 96%; in [17] it was 100%; in [18], 100%. Also, the Activity came to 82% in assay [19]; 82% in assay [20]; 82% in [21]; 79% in assay [22]; 92% in assay [23]; 100% in [24].

Values taken from ChEMBL document CHEMBL4330132, “5-Keto-3-cyano-2,4-diaminothiophenes as selective maternal embryonic leucine zipper kinase inhibitors” (Bioorg Med Chem Lett, 2019).
